The source of these data is patent US10450316B2, “Certain protein kinase inhibitor” (Chongqing Fochon Pharmaceutical Co., Ltd., priority 2015, dated 2019).

The structures appear in SMILES notation. Bounds are passed on as bounds.

Broadly, the IC50 is the concentration that gives 50% inhibition.

This assay concerns BE(2)-C cell. Nature of the assay: Cell proliferation assay (MTS) in BE(2)-C cells. It counts as cell-based. The settings on record: Homo sapiens, inhibition of BE(2)-C cell proliferation, 48 h. In short, it runs like this:
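BE(2)-C cells (3000/well, DMEM + 10% FBS) were treated for 48 h at 37 °C with compound at 1.5–10000 nM in nine concentrations. Viability was measured by MTS (2 h, stopped with SDS) at 490/650 nm, and IC50 was calculated from the dose-response.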
For `CCN1CCC2(CC1)CN(Cc1ccc(Nc3ncc(F)c(-c4cc(F)c5nc6n(c5c4)C(C)(C)CC6)n3)nc1)C2` [Example 113, N-(5-((7-ethyl-2,7-diazaspiro[3.5]nonan-2-yl)methyl)pyridin-2-yl)-5-fluoro-4-(5-fluoro-1,1-dimethyl-2,3-dihydro-1H-benzo[d]pyrrolo[1,2-a]imidazol-7-yl)pyrimidin-2-amine], the half-maximal inhibitory concentration (IC50) is less than 10 nM. As for `CC1(C)CCc2nc3c(F)cc(-c4nc(Nc5ccc(CN6CCC7(CC6)CNC7)cn5)ncc4F)cc3n21` [Example 114, N-(5-((2,7-diazaspiro[3.5]nonan-7-yl)methyl)pyridin-2-yl)-5-fluoro-4-(5-fluoro-1,1-dimethyl-2,3-dihydro-1H-benzo[d]pyrrolo[1,2-a]imidazol-7-yl)pyrimidin-2-amine], the figure is more than 100 nM; as for `CN1CC2(CCN(Cc3ccc(Nc4ncc(F)c(-c5cc(F)c6nc7n(c6c5)C(C)(C)CC7)n4)nc3)CC2)C1` [Example 115, 5-fluoro-4-(5-fluoro-1,1-dimethyl-2,3-dihydro-1H-benzo[d]pyrrolo[1,2-a]imidazol-7-yl)-N-(5-((2-methyl-2,7-diazaspiro[3.5]nonan-7-yl)methyl)pyridin-2-yl)pyrimidin-2-amine], 10 to 100 nM; as for `CCN1CC2(CCN(Cc3ccc(Nc4ncc(F)c(-c5cc(F)c6nc7n(c6c5)C(C)(C)CC7)n4)nc3)CC2)C1` [Example 116, N-(5-((2-ethyl-2,7-diazaspiro[3.5]nonan-7-yl)methyl)pyridin-2-yl)-5-fluoro-4-(5-fluoro-1,1-dimethyl-2,3-dihydro-1H-benzo[d]pyrrolo[1,2-a]imidazol-7-yl)pyrimidin-2-amine], 10 to 100 nM. Compound `CC1(C)CCc2nc3c(F)cc(-c4nc(Nc5ccc(CN6CC7(CNC7)C6)cn5)ncc4F)cc3n21` [Example 117, N-(5-((2,6-diazaspiro[3.3]heptan-2-yl)methyl)pyridin-2-yl)-5-fluoro-4-(5-fluoro-1,1-dimethyl-2,3-dihydro-1H-benzo[d]pyrrolo[1,2-a]imidazol-7-yl)pyrimidin-2-amine] returned a concentration for half-maximal inhibition (IC50) of more than 100 nM. `CN1CC2(C1)CN(Cc1ccc(Nc3ncc(F)c(-c4cc(F)c5nc6n(c5c4)C(C)(C)CC6)n3)nc1)C2` [Example 118, 5-fluoro-4-(5-fluoro-1,1-dimethyl-2,3-dihydro-1H-benzo[d]pyrrolo[1,2-a]imidazol-7-yl)-N-(5-((6-methyl-2,6-diazaspiro[3.3]heptan-2-yl)methyl)pyridin-2-yl)pyrimidin-2-amine] yielded an IC50 of 10 to 100 nM. The same measure for `CCN1CC2(C1)CN(Cc1ccc(Nc3ncc(F)c(-c4cc(F)c5nc6n(c5c4)C(C)(C)CC6)n3)nc1)C2` [Example 119, N-(5-((6-ethyl-2,6-diazaspiro[3.3]heptan-2-yl)methyl)pyridin-2-yl)-5-fluoro-4-(5-fluoro-1,1-dimethyl-2,3-dihydro-1H-benzo[d]pyrrolo[1,2-a]imidazol-7-yl)pyrimidin-2-amine]: 10 to 100 nM. Compound `CC1(C)CCc2nc3c(F)cc(-c4nc(Nc5ccc(CN6CCC7(CCNCC7)CC6)cn5)ncc4F)cc3n21` [Example 120, N-(5-((3,9-diazaspiro[5.5]undecan-3-yl)methyl)pyridin-2-yl)-5-fluoro-4-(5-fluoro-1,1-dimethyl-2,3-dihydro-1H-benzo[d]pyrrolo[1,2-a]imidazol-7-yl)pyrimidin-2-amine] showed a concentration for half-maximal inhibition (IC50) of more than 100 nM.

On to `CN1CCC2(CC1)CCN(Cc1ccc(Nc3ncc(F)c(-c4cc(F)c5nc6n(c5c4)C(C)(C)CC6)n3)nc1)CC2` [Example 121, 5-fluoro-4-(5-fluoro-1,1-dimethyl-2,3-dihydro-1H-benzo[d]pyrrolo[1,2-a]imidazol-7-yl)-N-(5-((9-methyl-3,9-diazaspiro[5.5]undecan-3-yl)methyl)pyridin-2-yl)pyrimidin-2-amine], for which the IC50 was more than 100 nM.

On to `CCN1CCC2(CC1)CCN(Cc1ccc(Nc3ncc(F)c(-c4cc(F)c5nc6n(c5c4)C(C)(C)CC6)n3)nc1)CC2` [Example 122, N-(5-((9-ethyl-3,9-diazaspiro[5.5]undecan-3-yl)methyl)pyridin-2-yl)-5-fluoro-4-(5-fluoro-1,1-dimethyl-2,3-dihydro-1H-benzo[d]pyrrolo[1,2-a]imidazol-7-yl)pyrimidin-2-amine], for which the concentration for half-maximal inhibition (IC50) is 10 to 100 nM. In the case of `CC1(C)CCc2nc3c(F)cc(-c4nc(Nc5ccc(CN6CC7CNCC7C6)cn5)ncc4F)cc3n21` (centres unmarked) [Example 123, 5-fluoro-4-(5-fluoro-1,1-dimethyl-2,3-dihydro-1H-benzo[d]pyrrolo[1,2-a]imidazol-7-yl)-N-(5-((hexahydropyrrolo[3,4-c]pyrrol-2(1H)-yl)methyl)pyridin-2-yl)pyrimidin-2-amine], the half-inhibitory concentration (IC50) was more than 100 nM. The same measure for `CN1CC2CN(Cc3ccc(Nc4ncc(F)c(-c5cc(F)c6nc7n(c6c5)C(C)(C)CC7)n4)nc3)CC2C1` (centres unmarked) [Example 124, 5-fluoro-4-(5-fluoro-1,1-dimethyl-2,3-dihydro-1H-benzo[d]pyrrolo[1,2-a]imidazol-7-yl)-N-(5-((5-methylhexahydropyrrolo[3,4-c]pyrrol-2(1H)-yl)methyl)pyridin-2-yl)pyrimidin-2-amine]: 10 to 100 nM. The same measure for `CCN1CC2CN(Cc3ccc(Nc4ncc(F)c(-c5cc(F)c6nc7n(c6c5)C(C)(C)CC7)n4)nc3)CC2C1` (centres unmarked) [Example 125, N-(5-((5-ethylhexahydropyrrolo[3,4-c]pyrrol-2(1H)-yl)methyl)pyridin-2-yl)-5-fluoro-4-(5-fluoro-1,1-dimethyl-2,3-dihydro-1H-benzo[d]pyrrolo[1,2-a]imidazol-7-yl)pyrimidin-2-amine]: 10 to 100 nM; for `CC1(C)CCc2nc3c(F)cc(-c4nc(Nc5ccc(CN6C7CCC6CNC7)cn5)ncc4F)cc3n21` [Example 126, N-(5-((3,8-diazabicyclo[3.2.1]octan-8-yl)methyl)pyridin-2-yl)-5-fluoro-4-(5-fluoro-1,1-dimethyl-2,3-dihydro-1H-benzo[d]pyrrolo[1,2-a]imidazol-7-yl)pyrimidin-2-amine]: 10 to 100 nM. `CN1CC2CCC(C1)N2Cc1ccc(Nc2ncc(F)c(-c3cc(F)c4nc5n(c4c3)C(C)(C)CC5)n2)nc1` [Example 127, 5-fluoro-4-(5-fluoro-1,1-dimethyl-2,3-dihydro-1H-benzo[d]pyrrolo[1,2-a]imidazol-7-yl)-N-(5-((3-methyl-3,8-diazabicyclo[3.2.1]octan-8-yl)methyl)pyridin-2-yl)pyrimidin-2-amine]: the IC50 is less than 10 nM. For `CCN1CC2CCC(C1)N2Cc1ccc(Nc2ncc(F)c(-c3cc(F)c4nc5n(c4c3)C(C)(C)CC5)n2)nc1` [Example 128, N-(5-((3-ethyl-3,8-diazabicyclo[3.2.1]octan-8-yl)methyl)pyridin-2-yl)-5-fluoro-4-(5-fluoro-1,1-dimethyl-2,3-dihydro-1H-benzo[d]pyrrolo[1,2-a]imidazol-7-yl)pyrimidin-2-amine], the concentration for half-maximal inhibition (IC50) was less than 10 nM. The same measure for `CC1(C)CCc2nc3c(F)cc(-c4nc(Nc5ccc(CN6CC7CCC(C6)N7)cn5)ncc4F)cc3n21` [Example 129, N-(5-((3,8-diazabicyclo[3.2.1]octan-3-yl)methyl)pyridin-2-yl)-5-fluoro-4-(5-fluoro-1,1-dimethyl-2,3-dihydro-1H-benzo[d]pyrrolo[1,2-a]imidazol-7-yl)pyrimidin-2-amine]: 10 to 100 nM; for `CN1C2CCC1CN(Cc1ccc(Nc3ncc(F)c(-c4cc(F)c5nc6n(c5c4)C(C)(C)CC6)n3)nc1)C2` [Example 130, 5-fluoro-4-(5-fluoro-1,1-dimethyl-2,3-dihydro-1H-benzo[d]pyrrolo[1,2-a]imidazol-7-yl)-N-(5-((8-methyl-3,8-diazabicyclo[3.2.1]octan-3-yl)methyl)pyridin-2-yl)pyrimidin-2-amine]: 10 to 100 nM; for `CCN1C2CCC1CN(Cc1ccc(Nc3ncc(F)c(-c4cc(F)c5nc6n(c5c4)C(C)(C)CC6)n3)nc1)C2` [Example 131, N-(5-((8-ethyl-3,8-diazabicyclo[3.2.1]octan-3-yl)methyl)pyridin-2-yl)-5-fluoro-4-(5-fluoro-1,1-dimethyl-2,3-dihydro-1H-benzo[d]pyrrolo[1,2-a]imidazol-7-yl)pyrimidin-2-amine]: 10 to 100 nM. As for `Fc1cnc(Nc2ccc(CN3CC4CC(C3)N4)cn2)nc1-c1cc(F)c2nc3n(c2c1)C1(CC3)CC1` [Example 132, N-(5-((3,6-diazabicyclo[3.1.1]heptan-3-yl)methyl)pyridin-2-yl)-5-fluoro-4-(5-fluoro-2,3-dihydrospiro[benzo[d]pyrrolo[1,2-a]imidazole-1,1′-cyclopropan]-7-yl)pyrimidin-2-amine], the figure is more than 100 nM; as for `CN1C2CC1CN(Cc1ccc(Nc3ncc(F)c(-c4cc(F)c5nc6n(c5c4)C4(CC6)CC4)n3)nc1)C2` [Example 133, 5-fluoro-4-(5-fluoro-2,3-dihydrospiro[benzo[d]pyrrolo[1,2-a]imidazole-1,1′-cyclopropan]-7-yl)-N-(5-((6-methyl-3,6-diazabicyclo[3.1.1]heptan-3-yl)methyl)pyridin-2-yl)pyrimidin-2-amine], 10 to 100 nM. `CCN1C2CC1CN(Cc1ccc(Nc3ncc(F)c(-c4cc(F)c5nc6n(c5c4)C4(CC6)CC4)n3)nc1)C2` [Example 134, N-(5-((6-ethyl-3,6-diazabicyclo[3.1.1]heptan-3-yl)methyl)pyridin-2-yl)-5-fluoro-4-(5-fluoro-2,3-dihydrospiro[benzo[d]pyrrolo[1,2-a]imidazole-1,1′-cyclopropan]-7-yl)pyrimidin-2-amine] displayed a half-maximal inhibitory concentration (IC50) of more than 100 nM.

`Fc1cnc(Nc2ccc(CN3C[C@@H]4C[C@H]3CN4)cn2)nc1-c1cc(F)c2nc3n(c2c1)C1(CC3)CC1` [Example 135, N-(5-(((1S,4S)-2,5-diazabicyclo[2.2.1]heptan-2-yl)methyl)pyridin-2-yl)-5-fluoro-4-(5-fluoro-2,3-dihydrospiro[benzo[d]pyrrolo[1,2-a]imidazole-1,1′-cyclopropan]-7-yl)pyrimidin-2-amine] showed a half-inhibitory concentration (IC50) of more than 1000 nM.
